Two compounds from ChEMBL document CHEMBL1146623, “Two antiviral compounds from the plant Stylogne cauliflora as inhibitors of HCV NS3 protease” (Bioorg Med Chem Lett, 2003) can be followed below.

Assay [1] concerns the target T1, NS3 (Hepatitis C virus, UniProt A3EZJ3). Kind of assay: Inhibitory activity evaluated in the HCV NS3 protease activity assay. Details: species or system Hepacivirus hominis.
Assay [2] has as its target T1, NS3. Briefly: Inhibitory activity evaluated in the HCV NS3 protease assay. Details: species or system Hepacivirus hominis.

In general, IC50 refers to the concentration that inhibits the measured activity by half. The low end stands for greater potency, the high end for weaker potency.

T1 sequence (A3EZJ3 whole entry): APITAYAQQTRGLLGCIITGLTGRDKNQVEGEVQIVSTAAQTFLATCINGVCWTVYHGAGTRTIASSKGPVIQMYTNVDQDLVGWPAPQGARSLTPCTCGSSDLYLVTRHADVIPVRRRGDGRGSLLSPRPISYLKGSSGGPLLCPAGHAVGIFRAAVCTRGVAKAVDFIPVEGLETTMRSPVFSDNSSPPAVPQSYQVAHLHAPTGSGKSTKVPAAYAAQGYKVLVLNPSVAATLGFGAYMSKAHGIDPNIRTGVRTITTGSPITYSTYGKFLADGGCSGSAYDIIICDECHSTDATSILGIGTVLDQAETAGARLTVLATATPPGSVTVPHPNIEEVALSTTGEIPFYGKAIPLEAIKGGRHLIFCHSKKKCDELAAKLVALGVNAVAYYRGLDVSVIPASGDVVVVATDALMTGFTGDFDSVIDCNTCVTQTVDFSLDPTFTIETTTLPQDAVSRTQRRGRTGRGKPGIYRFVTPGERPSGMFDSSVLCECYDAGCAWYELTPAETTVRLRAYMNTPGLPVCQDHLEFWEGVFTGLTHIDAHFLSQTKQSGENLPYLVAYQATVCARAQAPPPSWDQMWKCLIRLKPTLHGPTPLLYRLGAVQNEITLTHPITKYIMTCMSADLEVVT

In the case of `O=C1OC[C@H]2O[C@@H](Oc3cc(O)c4c(c3)OC(c3ccccc3)CC4=O)[C@H](O)[C@@H](O)[C@@H]2OC(=O)c2cc(O)c(O)c(O)c2-c2c1cc(O)c(O)c2O` (some centres not stated), at NS3 [1], the IC50 turned out to be 300 nM.
`O=C1OC[C@H]2O[C@@H](Oc3cc(O)c(C(=O)CCc4ccccc4)c(O)c3)[C@H](O)[C@@H](O)[C@@H]2OC(=O)c2cc(O)c(O)c(O)c2-c2c1cc(O)c(O)c2O` [THONNINGIANIN B] showed a 50% inhibitory concentration (IC50) against NS3 [2] of 800 nM.
